The structures appear in SMILES notation.

One assay relates to MKN45. The assay is described as follows: MTT cytotoxicity test (GI50). The conditions noted are these: Homo sapiens, MKN-45; MKN45, cancer, gastric; MTT 72 h. The assay is classed as cell-based.
The target in assay [1] is T1, 3-hydroxybutyrate dehydrogenase type 2 (Homo sapiens, UniProt Q9BUT1).
T1 construct: After collecting data covering >8,000 proteins in lysates of normal BJ cells; endogenous in cells; host or cells: normal BJ cells, lysate
T1 sequence (Q9BUT1 whole entry): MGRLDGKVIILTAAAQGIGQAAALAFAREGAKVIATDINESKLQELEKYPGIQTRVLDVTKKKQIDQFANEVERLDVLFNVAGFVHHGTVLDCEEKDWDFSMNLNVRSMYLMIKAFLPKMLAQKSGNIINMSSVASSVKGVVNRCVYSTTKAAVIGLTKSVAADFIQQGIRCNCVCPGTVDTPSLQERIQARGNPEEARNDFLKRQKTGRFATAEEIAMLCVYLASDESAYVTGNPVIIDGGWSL
The assay is described as follows: MS-CETSA in normal BJ cell lysates. The assay is classed as binding. The conditions noted are these: lysate, 100 μM compound.
Experimental: (§3) Target identification was performed by cellular thermal shift assay (CETSA) coupled with quantitative mass spectrometry. In brief, normal BJ cells were lysed by combination of freeze/thaw and mechanical shearing with needle in buffer [50 mM HEPES (pH 7.5), 5 mM β-glycerophosphate, 0.1 mM Sodium Vanadate, 10 mM MgCl2, 1 mM TCEP and 1× Protease inhibitor Cocktail]. The cell debris was removed by centrifugation at 20,000 g for 20 min at 4° C. […] Each lysate was divided into 10 aliquots for heat treatment at the respective temperatures for 3 min in a 96-well thermocycler, followed by 3 min at 4° C. The lysate was centrifuged at 20,000 g for 20 min at 4° C. and the supernatant was transferred into microtubes for MS sample preparation.
(§4) After lysis, at least 100 μg of the protein (measured with a BCA assay) was subjected to reduction, denaturation and alkylation. Samples were subsequently incubated with sequencing grade LysC (Wako) and trypsin (Promega) for digestion overnight at 37° C. The digested samples were dried using a centrifugal vacuum evaporator, solubilized in 100 mM TEAB. […]
(§5) Proteins for which a low temperature plateau was not present were deleted using a cut off >0.85 for the average reading of the first three temperature points (in our experience proteins melting already at −37° C. are more prone to give false positives in a shift analysis).

For a further assay, the system named is PIK3IP1. The assay is described as follows: qRT-PCR and immunoblot of PIK3IP1 in BJ cells. The format is cell-based, human. The conditions noted are these: 5 μM, 24 h. The procedure: Total RNA was isolated from cultured cells using the RNeasy mini kit (Qiagen). cDNA was synthesized from 1 μg of total RNA using the iScript cDNA synthesis kit (Bio-Rad). qRT-PCR analysis was performed using the iQ SYBR Green Super mix (Bio-Rad) using the following gene-specific primers:
human PI5P4Kα (5′-[…]-3′; SEQ ID NO: 11, 5′-[…]-3′; SEQ ID NO: 12), human PI5P4Kβ (5′-[…]-3′; SEQ ID NO: 13, 5′-[…]-3′; SEQ ID NO: 14), human PI5P4Kγ (5′-[…]-3′; SEQ ID NO: 15, 5′-[…]-3′; SEQ ID NO: 16) and human PIK3IP1 (5′-[…]-3′; SEQ ID NO: 17, 5′-[…]-3′; SEQ ID NO: 18). The TATA-binding protein (TBP) gene was used for normalization. All PCR reactions were performed in triplicate.
Total cell lysates were prepared with 1% triton lysis buffer [25 mM Tris HCl (pH 8.0), 150 mM NaCl, 1% triton-X100, 1 mM dithiothreitol (DTT), protease inhibitor mix (Complete Mini, Roche) and phosphatase inhibitor (PhosphoStop, Roche)] and subjected to SDS-PAGE. […] Where indicated, intensities of protein bands were quantified by densitometry (Odyssey V3.0), normalized to their loading controls and then calculated as fold expression change relative to DMSO control.

A further assay concerns HCT15. The assay is described as follows: MTT cytotoxicity test (GI50). The format is cell-based. The conditions noted are these: Homo sapiens, HCT-15; HCT15, cancer, colon; MTT 72 h.
Another assay concerns MCF7. The assay is described as follows: MTT cytotoxicity test (GI50). The format is cell-based. The conditions noted are these: Homo sapiens; MCF7, cancer, breast; MTT 72 h. Background: Formazan colour is commonly taken as a measure of viable cells.
A further assay deals with SNU620. Kind of assay: MTT cytotoxicity test (GI50). The assay is classed as cell-based. The conditions noted are these: Homo sapiens; SNU620, cancer, gastric; MTT 72 h.
The target in another assay is T2, Adenosine kinase (Homo sapiens, UniProt P55263).
T2 construct: After collecting data covering >8,000 proteins in lysates of normal BJ cells; endogenous in cells; host or cells: normal BJ cells, lysate
T2 sequence (P55263 whole entry): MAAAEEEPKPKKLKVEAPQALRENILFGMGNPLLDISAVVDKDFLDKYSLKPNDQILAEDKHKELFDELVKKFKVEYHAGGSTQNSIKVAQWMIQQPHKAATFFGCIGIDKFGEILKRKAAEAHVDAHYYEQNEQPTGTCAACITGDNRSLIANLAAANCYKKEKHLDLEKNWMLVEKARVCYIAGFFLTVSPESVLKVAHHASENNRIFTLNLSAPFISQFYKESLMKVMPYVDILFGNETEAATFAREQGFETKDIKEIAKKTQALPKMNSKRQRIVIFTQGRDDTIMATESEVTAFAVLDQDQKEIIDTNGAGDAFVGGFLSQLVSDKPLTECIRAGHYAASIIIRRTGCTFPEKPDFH
The assay is described as follows: MS-CETSA in normal BJ cell lysates. The conditions noted are these: lysate, 100 μM compound. The format is binding.

The next assay concerns BJ normal. Kind of assay: MTT cytotoxicity test (GI50). The conditions noted are these: Homo sapiens, skin, MTT 72 h. The format is cell-based.
The next assay relates to MDA-MB-231. The assay is described as follows: MTT cytotoxicity test (GI50). The format is cell-based. The conditions noted are these: Homo sapiens; MDA-MB-231, cancer, breast; MTT 72 h.
The subject of assay [2] is normal and transformed BJ cells. Kind of assay: a131 SAR analysis: pH3(Ser10) immunoblot, BrdU incorporation, subG1 FACS. Also noted: key: Group 1: possess the dual-inhibitory properties of both causing the arrest of normal BJ cells at the G1/S phase and also causing mitotic arrest/catastrophe in transformed BJ cells; Group 2: only cause the arrest of normal BJ cells at the G1/S phase; Group 3: cause mitotic arrest/catastrophe in transformed BJ cells, but do not arrest normal BJ cells at the G1/S phase; Group 4: are inactive or weakly active. The conditions noted are these: 5 μM, 48 h. The format is cell-based, human. The procedure: (§1) Cell death was assessed via Annexin V and/or PI (propidium iodide) staining according to the manufacturer's instructions (eBioscience). Cell growth arrest was assessed by direct measurement of DNA synthesis through incorporation of the nucleoside analog bromodeoxyuridine (BrdU). Briefly, BrdU (30 μM, Sigma-Aldrich) was added for 2 h before harvesting cells. Cells were subsequently stained with Pacific Blue-conjugated BrdU antibody (Invitrogen) for 1 h followed by PI staining. Stained cells were analyzed by MACSQuant (MACS). Three independent experiments were performed in triplicate. The percentage of Annexin V/PI- or BrdU-positive cells was quantified using Flow Jo software (Becton Dickinson). Where indicated, the combined activity of caspase-3/7 was determined using the caspase-Glo 3/7 Assay Kit (Promega) and normalized to the number of viable cells as determined by MTT assay.
(§2) Total cell lysates were prepared with 1% triton lysis buffer [25 mM Tris HCl (pH 8.0), 150 mM NaCl, 1% triton-X100, 1 mM dithiothreitol (DTT), protease inhibitor mix (Complete Mini, Roche) and phosphatase inhibitor (PhosphoStop, Roche)] and subjected to SDS-PAGE. The following antibodies were used for immunoblotting: anti-β-actin (Sigma-Aldrich), anti-cleaved PARP (Abcam, #ab32064), anti-PI5P4Kα (#5527), anti-PI5P4Kβ (#9694), anti-cleaved caspase-3 (#9664), anti-pHistone H3(Ser10) (#3377), anti-pAkt(S473) (#9271), anti-pAkt(T308) (#13038), anti-total Akt (#9272), anti-p70S6K(T389) (#9234), anti-total p70S6K (#9202), anti-pErk (#4370), anti-γ-Histone H2AX (#9718) (Cell signaling) and anti-PIK3IP1 (Proteintech, #16826-1-AP). The secondary antibodies used were sheep anti-mouse IgG HRP and donkey anti-rabbit IgG HRP (Amersham; 1:2000 dilution). Immunoreactive proteins were visualized using ECL reagent (Amersham). Where indicated, intensities of protein bands were quantified by densitometry (Odyssey V3.0), normalized to their loading controls and then calculated as fold expression change relative to DMSO control.

The next assay deals with Ras/Raf/MEK/ERK pathway. Kind of assay: Immunoblot of ERK phosphorylation. The conditions noted are these: normal BJ cells, 24 h. The assay is classed as cell-based, human. The procedure:
as §2
In general terms: A western blot detects proteins with antibodies after separation by electrophoresis.

Another assay relates to DLD1. Kind of assay: MTT cytotoxicity test (GI50). The format is cell-based. The conditions noted are these: Homo sapiens, DLD-1; DLD1, cancer, colon; MTT 72 h.
A further assay concerns cancer cell lines. The assay is described as follows: FACS of subG1 (PI) and Annexin V in cancer and normal cell lines. The assay is classed as cell-based, human. The conditions noted are these: 2.5 μM and 5 μM, 48 h. As for the experimental part: as §1
Assay [3] relates to Ras-driven glioma initiating cells (GICs). The assay is described as follows: Sphere formation assay. The assay is classed as cell-based, murine. The conditions noted are these: 5 μM, 7 days. The procedure: Murine glioma-initiating cells (GICs) were established and cultured as described previously (Saga, I. et al., Neuro. Oncol. 16: 1048-1056 (2014)). Briefly, Ink4a/Arf-null neural stem/progenitor cells were transduced with human H-RasV12 and DsRed and propagated in serum-free Dulbecco modified Eagle medium (DMEM)/F12 (Sigma-Aldrich) supplemented with recombinant epidermal growth factor (EGF; PeproTech) and basic fibroblast growth factor (PeproTech) at 20 ng/ml, heparan sulfate (Sigma-Aldrich) at 200 ng/ml and B27 supplement without vitamin A (Invitrogen, Carlsbad, Calif.). GICs were dissociated and plated in 96-well plates at a density of 100 cells/well. […] Three plates were prepared for each treatment group, and 30 wells were quantified per plate. Images were acquired on a BZ-X700 inverted fluorescence microscope (Keyence). Quantification was performed by Nikon NIS-element software (n=90).

Experimental for Adenosine kinase: as §3, §4, §5

Consider `N#C/C(=C\c1cccc2cnccc12)c1c[nH]c2ccccc12` [a131, (Z)-2-(1H-indol-3-yl)-3-(5-isoquinolyl)prop-2-enenitrile], for which the GI50 – broadly, the concentration giving 50% growth inhibition – with MKN45 worked out at 1 µM; in the assay on HCT15, 0.5 µM; in the assay with MCF7, 1.2 µM; with SNU620, 1 µM; with BJ normal, 8.1 µM; in the assay with MDA-MB-231, 1.1 µM. This compound had a GI50 with DLD1 of 1.2 µM. For the same compound, the ED score was 0.5139 in assay [1] and 0.4158 on Adenosine kinase. For the same compound, the ΔTm at 100 µM came out at 1.83 °C in assay [1] (read-out: mean Delta Tm) and 1.74 °C on Adenosine kinase (read-out: mean Delta Tm). For the same compound, the “PIK3IP1 mRNA and protein levels” value in the assay with PIK3IP1 (normal BJ cells) is “up-regulation of PIK3IP1 at both the mRNA and protein levels”. The “PIK3IP1 mRNA expression” value in the assay with PIK3IP1 (transformed BJ cells) was “unresponsive”. Moreover, the “Group (a131 SAR analysis)” value in [2] is listed as “Group 1”. Also, the “inhibition of the Ras/Raf/MEK/ERK pathway (ERK phosphorylation)” value in the assay with Ras/Raf/MEK/ERK pathway is “Neither a131 and a166 treatment nor PI5P4Ks knockdown inhibited”. The “percentage of cells expressing Annexin V versus DMSO” value with cancer cell lines is reported as “significantly higher (p<0.0001)”. For the same compound, in the assay with cancer cell lines (cancer cells), the “percentage of subG1 population versus DMSO” value is reported as “significantly higher (p<0.0001)”. In addition, the “growth of GICs in tumor spheroid culture” value in [3] is “significantly suppressed growth”.

These data come from patent US20190350964A1, “ANTI-CANCER COMPOUNDS AND USES THEREOF” (NATIONAL UNIVERSITY OF SINGAPORE, priority 2016, published 2019).
